# Assay results from US6946458B2, “N-thiolated beta-lactams: novel antibacterial agents for methicillin-resistant Staphylococcus aureus” (University of South Florida, priority 1999, dated 2005).
# Read-outs that look alike come from different tables or passages of the source.
# Key:
# Type in all cases: cell-based, Staphylococcus aureus
# [1] = tested on: MRSA cells; assay: light microscopy after Gram staining; conditions: for cells Gram-stained purple: Example 5, MRSA cells grown in presence of the substance
# Description: (§1) In fact, only small isolated colonies of surviving cells can be found, all of which appear perfectly normal in size, shape, smoothness, and clustering behavior. […] Pulse radiolabeling experiments indicate that the lactam of FIG. 1D blocks the bacterial uptake of ^3H-uridine and ^3H-leucine at low (MIC) levels (Lim, D. V. et al. Microbiology, 1977, 33:328; Champney, W. S. and C. G. Tober Antimicrob. Agents and Chemother., 2000, 44:1413).
# (FIGS. 14A-14C) S. aureus is a Gram-positive microorganism, and thus reacts with Gram stain to produce a purple coloration due to binding of the stain to the peptidoglycan. 100% of MRSA cells grown either in the absence or presence of the lactam of FIG. 11F take on a purple color when Gram stained (top and center images, next page). In contrast, for MRSA cells treated with penicillin G or vancomycin (cell wall synthesis inhibitors), only about 30% of the cells are Gram-stained purple, with the remainder of the cells appearing pink (bottom image, next page) due to morphologically altered walls. This is strong evidence that the N-methylthio lactams are not affecting late stage events in cell wall biosynthesis.
# [2] = tested on: MRSA USF658; assay: Kirby-Bauer agar disk diffusion; set-up: Kirby-Bauer Disc Diffusion Test Results: unit not given here; conditions: for Kirby-Bauer Disc Diffusion Test Results: Table 5, beta-lactamase producing strain; for zone of inhibition at 20 µg/disc: Staphylococcus aureus, MRSA
# Method in brief: (§2)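 Agar disk diffusion against β-lactamase-producing MRSA clinical isolates, using 6-mm air-dried disks loaded with 20 μg test compound. Growth-inhibition zone diameter (mm) read after 24 h; values are means of triplicate experiments.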
# [3] = tested on: MRSA USF659; assay: Kirby-Bauer agar disk diffusion; set-up: Kirby-Bauer Disc Diffusion Test Results: unit not given here; conditions: for Kirby-Bauer Disc Diffusion Test Results: Table 5, beta-lactamase producing strain; for zone of inhibition at 20 µg/disc: Staphylococcus aureus, MRSA
# Method in brief: as §2
# [4] = tested on: MRSA USF657; assay: Kirby-Bauer agar disk diffusion; set-up: Kirby-Bauer Disc Diffusion Test Results: unit not given here; conditions: for Kirby-Bauer Disc Diffusion Test Results: Table 5, beta-lactamase producing strain; for zone of inhibition at 20 µg/disc: Staphylococcus aureus, MRSA
# Method in brief: as §2
# [5] = tested on: MRSA USF654; assay: Kirby-Bauer agar disk diffusion; set-up: Kirby-Bauer Disc Diffusion Test Results: unit not given here; conditions: for Kirby-Bauer Disc Diffusion Test Results: Table 5, beta-lactamase producing strain; for zone of inhibition at 20 µg/disc: Staphylococcus aureus, MRSA
# Method in brief: as §2
# [6] = tested on: MRSA USF653; assay: Kirby-Bauer agar disk diffusion; set-up: Kirby-Bauer Disc Diffusion Test Results: unit not given here; conditions: for Kirby-Bauer Disc Diffusion Test Results: Table 5, beta-lactamase producing strain; for zone of inhibition at 20 µg/disc: Staphylococcus aureus, MRSA
# Method in brief: as §2
# [7] = tested on: MRSA USF655; assay: Kirby-Bauer agar disk diffusion; set-up: Kirby-Bauer Disc Diffusion Test Results: unit not given here; conditions: for Kirby-Bauer Disc Diffusion Test Results: Table 5; for zone of inhibition at 20 µg/disc: Staphylococcus aureus, MRSA
# Method in brief: as §2
# [8] = tested on: MRSA USF652; assay: Kirby-Bauer agar disk diffusion; set-up: Kirby-Bauer Disc Diffusion Test Results: unit not given here; conditions: for Kirby-Bauer Disc Diffusion Test Results: Table 5, beta-lactamase producing strain; for zone of inhibition at 20 µg/disc: Staphylococcus aureus, MRSA
# Method in brief: as §2
# [9] = tested on: MRSA USF656; assay: Kirby-Bauer agar disk diffusion; set-up: Kirby-Bauer Disc Diffusion Test Results: unit not given here; conditions: for Kirby-Bauer Disc Diffusion Test Results: Table 5, beta-lactamase producing strain; for zone of inhibition at 20 µg/disc: Staphylococcus aureus, MRSA
# Method in brief: as §2
# [10] = tested on: Staph aureus 525; assay: Kirby-Bauer agar disk diffusion; conditions: Table 5
# [11] = tested on: cultures of S. aureus and MRSA; assay: electron microscopy of cell morphology
# Description: The structure-bioactivity patterns observed for these N-thiolated lactams are highly atypical for a β-lactam antibiotic. The compounds are lipohilic and devoid of the typical acidic ring functionality required for recognition by the penicillin binding proteins. The implication that the lactams set forth in FIGS. 1A-1I are not acting in the same manner or on the same enzymes as the traditional β-lactam drugs is supported by electron microscopy experiments, which confirm that cell morphology is unaffected by the lactam of FIG. 1D (Greenwood, D. et al. Science, 1969, 163:1076).
# as §1
# Light microscopy and scanning electron microscopy experiments have enabled us to look for cell wall damage in cultures of S. aureus and MRSA grown in the presence of N-methylthio lactam (FIG. 11F) over a range of different concentrations and cell growth conditions. […] Those cells that survive the treatment appear normal (coccal) and fully mature.
# [12] = read-out: The Zone of Inhibition
compound,measurement,setting,value
COC1C(=O)N(SC)C1c1ccccc1Cl (racemic) [FIG. 11F],cells Gram-stained purple,[1],100%
same,Kirby-Bauer Disc Diffusion Test Results,[2],28
same,Kirby-Bauer Disc Diffusion Test Results,[3],27
same,Kirby-Bauer Disc Diffusion Test Results,[4],28
same,Kirby-Bauer Disc Diffusion Test Results,[5],26
same,Kirby-Bauer Disc Diffusion Test Results,[6],30
same,Kirby-Bauer Disc Diffusion Test Results,[7],26
same,Kirby-Bauer Disc Diffusion Test Results,[8],30
same,Kirby-Bauer Disc Diffusion Test Results,[9],26
same,Kirby-Bauer Disc Diffusion Test Results,[10],26
same,cell counts,"[11]; Example 5, cultures grown in the presence of the lactam",Highly reduced cell counts
same,alterations in the shapes or sizes of remaining cells,"[11]; Example 5, light and scanning electron microscopy, range of concentrations and growth conditions",in no cases have we found alterations in the shapes or sizes
"CN[C@H](CC(C)C)C(=O)N[C@H]1C(=O)N[C@@H](CC(N)=O)C(=O)N[C@H]2C(=O)N[C@H]3C(=O)N[C@H](C(=O)N[C@H](C(=O)O)c4cc(O)cc(O)c4-c4cc3ccc4O)[C@H](O)c3ccc(c(Cl)c3)Oc3cc2cc(c3O[C@@H]2O[C@H](CO)[C@@H](O)[C@H](O)[C@H]2O[C@H]2C[C@](C)(N)[C@H](O)[C@H](C)O2)Oc2ccc(cc2Cl)[C@H]1O [Vancomycin, reference compound]",coloration upon Gram staining,[1]; Example 1,pink coloration
same,cells Gram-stained purple,[1],about 30%
same,zone of inhibition at 20 µg/disc,[2]; [12],20 mm
same,zone of inhibition at 20 µg/disc,[2]; read-out: Zones of Inhibition,18 mm
same,Kirby-Bauer Disc Diffusion Test Results,[2],18
same,zone of inhibition at 20 µg/disc,[3]; [12],20 mm
same,zone of inhibition at 20 µg/disc,[3]; read-out: Zones of Inhibition,18 mm
same,Kirby-Bauer Disc Diffusion Test Results,[3],18
same,zone of inhibition at 20 µg/disc,[4]; [12],21 mm
same,zone of inhibition at 20 µg/disc,[4]; read-out: Zones of Inhibition,18 mm
same,Kirby-Bauer Disc Diffusion Test Results,[4],18
same,zone of inhibition at 20 µg/disc,[5]; [12],20 mm
same,zone of inhibition at 20 µg/disc,[5]; read-out: Zones of Inhibition,19 mm
same,Kirby-Bauer Disc Diffusion Test Results,[5],19
same,zone of inhibition at 20 µg/disc,[6]; [12],20 mm
same,zone of inhibition at 20 µg/disc,[6]; read-out: Zones of Inhibition,18 mm
same,Kirby-Bauer Disc Diffusion Test Results,[6],18
same,zone of inhibition at 20 µg/disc,[7]; [12],19 mm
same,zone of inhibition at 20 µg/disc,[7]; read-out: Zones of Inhibition,19 mm
same,Kirby-Bauer Disc Diffusion Test Results,[7],19
same,zone of inhibition at 20 µg/disc,[8]; [12],23 mm
same,zone of inhibition at 20 µg/disc,[8]; read-out: Zones of Inhibition,19 mm
same,Kirby-Bauer Disc Diffusion Test Results,[8],19
same,zone of inhibition at 20 µg/disc,[9]; [12],20 mm
same,zone of inhibition at 20 µg/disc,[9]; read-out: Zones of Inhibition,21 mm
same,Kirby-Bauer Disc Diffusion Test Results,[9],21
same,cell morphology,"[11]; Example 1, electron microscopy, high magnification","wrinkled, deformed, or even sheared"
